Results published in US9796709B2, “5-hydroxy-4-(trifluoromethyl)pyrazolopyridine derivative” (Daiichi Sankyo Company, Limited, priority 2013, dated 2017).

Legend:
[1] = molecular target: T1, LCAT (Homo sapiens, UniProt P04180); assay: LCAT activity measurement (in vitro), [14C]cholesterol esterification with HDL3 fraction; assay type: biochemical; details: HDL3 fraction from plasma of a healthy person as enzyme source and acceptor; 37° C., approximately 16 hours; relative to sample without test drug; read-out: EC50 of LCAT activation
T1 construct: The obtained fraction was dialyzed against phosphate-buffered saline (pH 7.4) and used as an enzyme source and an acceptor for LCAT; from tissue; host or cells: HDL3 fraction (1.125 < specific gravity < 1.210 g/mL) of plasma from a healthy person
T1 sequence (P04180 25-440): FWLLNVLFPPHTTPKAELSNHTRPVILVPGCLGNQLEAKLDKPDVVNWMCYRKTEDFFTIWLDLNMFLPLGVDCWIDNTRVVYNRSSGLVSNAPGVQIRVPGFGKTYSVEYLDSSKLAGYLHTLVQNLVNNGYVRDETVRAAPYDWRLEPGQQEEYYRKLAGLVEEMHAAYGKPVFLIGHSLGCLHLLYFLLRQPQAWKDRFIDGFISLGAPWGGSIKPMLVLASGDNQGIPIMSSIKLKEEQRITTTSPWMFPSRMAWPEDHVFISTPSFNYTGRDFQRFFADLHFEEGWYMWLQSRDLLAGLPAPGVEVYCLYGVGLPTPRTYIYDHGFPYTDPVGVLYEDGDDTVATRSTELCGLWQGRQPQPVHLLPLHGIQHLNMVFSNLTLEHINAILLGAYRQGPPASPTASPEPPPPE
Method: A fraction composed of HDL3 (1.125 <specific gravity <1.210 g/mL) was obtained from the plasma of a healthy person by density gradient centrifugation. The obtained fraction was dialyzed against phosphate-buffered saline (pH 7.4) and used as an enzyme source and an acceptor for LCAT. Each test drug was prepared by dissolution in dimethyl sulfoxide. [^14C]Cholesterol containing DTNB (Ellman's reagent, final concentration: 0.5 mM), mercaptoethanol (final concentration: 12.5 mM), and 0.6% bovine serum albumin was added to phosphate-buffered saline (pH 7.4) containing 1 mg/mL HDL3, and the test drug was further added thereto at varying concentrations to adjust the whole amount to 80 μL. This mixture was incubated at 37° C. for approximately 16 hours. Then, a mixed solution of hexane and isopropanol (mixing ratio=3:2) was added thereto to stop the reaction. After stirring, the hexane layer was collected, and this layer was evaporated to dryness. A chloroform solution (concentration: 10 mg/mL) was added thereto, and the mixture was spotted onto a thin-layer silica gel plate and developed using a mixed solution of hexane, diethyl ether, and ethyl acetate (mixing ratio=85:15:2). The radioactivity of a portion corresponding to cholesterol oleate was measured using an imaging analyzer BAS-2500 (manufactured by Fujifilm Corp.). A sample non-supplemented with the test drug was similarly treated and assayed. The EC50 value of LCAT activation was calculated according to the expression given below relative to LCAT activity in the sample non-supplemented with the test drug.
[formula] • wherein X represents the logarithm of the concentration of the test drug; • Y represents the responsiveness (LCAT activity) of the test drug; • Top represents the maximum value (maximum plateau); • Bottom represents the minimum value (minimum plateau); and • EC50 represents the 50% effective concentration.

[2] = tested on: cynomolgus monkey; assay: Drug efficacy test in cynomolgus monkeys (plasma HDL cholesterol); assay type: in vivo; details: Macaca fascicularis, oral, single dose of 10 mg/kg, from AUC before administration and 24 hours after administration, read-out: Rate of increase in HDL level after administration of single dose
Method: Each test drug was dissolved in a propylene glycol (Sigma-Aldrich Corp.)-Tween 80 (Sigma-Aldrich Corp.) mixed solution [4/1 (v/v)] or a 0.5% (w/v) methylcellulose aqueous solution, and the solution was orally administered to a cynomolgus monkey for 1 or 7 days. At day 1 or 7 of the administration period, blood was collected before administration and after administration, and plasma was obtained. The content of cholesterol in the plasma was measured using a commercially available assay kit (Cholesterol-E Wako, Wako Pure Chemical Industries, Ltd.). The lipoprotein profile was analyzed by HPLC (column: LipopropakXL, manufactured by Tosoh Corp.). The contents of HDL cholesterol and non-HDL cholesterol were calculated according to the following calculation expression: Content of HDL cholesterol=Content of cholesterol in the plasma×(Peak area of HDL cholesterol/Total sum of peaks) Content of non-HDL cholesterol=Content of cholesterol in the plasma×(Peak area of non-HDL cholesterol/Total sum of peaks)

Row | EC50 [1] [nM] | Compound | change in vivo at 10 mg/kg [2] [%]
1 | 7 | O=C1Nc2[nH]nc(C3CCN(c4ccc(C(F)(F)F)cn4)CC3)c2C(O)(C(F)(F)F)C1O (single isomer, unassigned; (+)) [Example 35, (+)-4,5-Dihydroxy-4-(trifluoromethyl)-3-{1-[5-(trifluoromethyl)pyridin-2-yl]piperidin-4-yl}-1,4,5,7-tetrahydro-6H-pyrazolo[3,4-b]pyridin-6-one] | 482
2 | 4 | O=C1Nc2[nH]nc(C3CCN(c4cnc(C(F)(F)F)cn4)CC3)c2C(O)(C(F)(F)F)C1O (single isomer, unassigned; (+)) [Example 34, (+)-4,5-Dihydroxy-4-(trifluoromethyl)-3-{1-[5-(trifluoromethyl)pyrazin-2-yl]piperidin-4-yl}-1,4,5,7-tetrahydro-6H-pyrazolo[3,4-b]pyridin-6-one] | 590
3 | 9 | O=C1Nc2[nH]nc(C3CCN(c4cnc(C(F)(F)F)cn4)CC3)c2[C@@H](C(F)(F)F)[C@H]1O (single isomer, unassigned) [Example 18, (+)-cis-5-Hydroxy-4-(trifluoromethyl)-3-{1-[5-(trifluoromethyl)pyrazin-2-yl]piperidin-4-yl}-1,4,5,7-tetrahydro-6H-pyrazolo[3,4-b]pyridin-6-one] | 644
4 | 63 | O=C1Nc2[nH]nc(C3CCN(c4cc(C(F)(F)F)ncn4)CC3)c2[C@@H](C(F)(F)F)[C@H]1O (single isomer, unassigned) [Example 30, (+)-cis-5-Hydroxy-4-(trifluoromethyl)-3-{1-[6-(trifluoromethyl)pyrimidin-4-yl]piperidin-4-yl}-1,4,5,7-tetrahydro-6H-pyrazolo[3,4-b]pyridin-6-one] | 290
5 | 18 | O=C1Nc2[nH]nc(C3CCN(c4cnc(C(F)(F)F)nc4)CC3)c2[C@@H](C(F)(F)F)[C@H]1O (single isomer, unassigned) [Example 21, (+)-cis-5-Hydroxy-4-(trifluoromethyl)-3-{1-[2-(trifluoromethyl)pyrimidin-5-yl]piperidin-4-yl}-1,4,5,7-tetrahydro-6H-pyrazolo[3,4-b]pyridin-6-one] | 483
6 | 32 | O=C1Nc2[nH]nc(C3CCN(c4ccc(Cl)cn4)CC3)c2[C@@H](C(F)(F)F)[C@H]1O (single isomer, unassigned) [Example 22, (+)-cis-3-[1-(5-Chloropyridin-2-yl)piperidin-4-yl]-5-hydroxy-4-(trifluoromethyl)-1,4,5,7-tetrahydro-6H-pyrazolo[3,4-b]pyridin-6-one] | 581
7 | 35 | O=C1Nc2[nH]nc(C3CCN(c4ccc(C(F)(F)F)nn4)CC3)c2[C@@H](C(F)(F)F)[C@H]1O (single isomer, unassigned) [Example 19, (+)-cis-5-Hydroxy-4-(trifluoromethyl)-3-{1-[6-(trifluoromethyl)pyridazin-3-yl]piperidin-4-yl}-1,4,5,7-tetrahydro-6H-pyrazolo[3,4-b]pyridin-6-one] | 
8 | 35 | CC(C)Oc1ccc(N2CCC(c3n[nH]c4c3[C@@H](C(F)(F)F)[C@@H](O)C(=O)N4)CC2)nn1 (single isomer, unassigned) [Example 41, (+)-cis-5-Hydroxy-3-[1-(6-isopropoxypyridazin-3-yl)piperidin-4-yl]-4-(trifluoromethyl)-1,4,5,7-tetrahydro-6H-pyrazolo[3,4-b]pyridin-6-one] | 
9 | 41 | CC(C)Oc1ccc(N2CCC(c3n[nH]c4c3[C@@H](C(F)(F)F)[C@@H](O)C(=O)N4)CC2)nc1 (single isomer, unassigned) [Example 36, (+)-cis-5-Hydroxy-3-[1-(5-isopropoxypyridin-2-yl)piperidin-4-yl]-4-(trifluoromethyl)-1,4,5,7-tetrahydro-6H-pyrazolo[3,4-b]pyridin-6-one] | 
10 | 37 | N#Cc1cnc(N2CCC(c3n[nH]c4c3[C@@H](C(F)(F)F)[C@@H](O)C(=O)N4)CC2)cc1C(F)(F)F (racemic) [Example 13, 6-{4-[cis-5-Hydroxy-6-oxo-4-(trifluoromethyl)-4,5,6,7-tetrahydro-1H-pyrazolo[3,4-b]pyridin-3-yl]piperidin-1-yl}-4-(trifluoromethyl)pyridine-3-carbonitrile] | 
11 | 11 | O=C1Nc2[nH]nc(C3CCN(c4ccc(-c5ccccc5)nn4)CC3)c2[C@@H](C(F)(F)F)[C@H]1O (single isomer, unassigned) [Example 29, cis-5-hydroxy-3-[1-(6-phenylpyridazin-3-yl)piperidin-4-yl]-4-(trifluoromethyl)-1,4,5,7-tetrahydro-6H-pyrazolo[3,4-b]pyridin-6-one] | 
12 | 27 | CC(C)c1nc(N2CCC(c3n[nH]c4c3[C@@H](C(F)(F)F)[C@@H](O)C(=O)N4)CC2)cc(C(F)(F)F)n1 (racemic) [Example 9, cis-5-Hydroxy-3-{1-[2-isopropyl-6-(trifluoromethyl)pyrimidin-4-yl]piperidin-4-yl}-4-(trifluoromethyl)-1,4,5,7-tetrahydro-6H-pyrazolo[3,4-b]pyridin-6-one] | 
13 | 31 | O=C1Nc2[nH]nc(C3CCN(c4cc(C(F)(F)F)ccn4)CC3)c2[C@@H](C(F)(F)F)[C@H]1O (racemic) [Example 17, cis-5-Hydroxy-4-(trifluoromethyl)-3-{1-[4-(trifluoromethyl)pyridin-2-yl]piperidin-4-yl}-1,4,5,7-tetrahydro-6H-pyrazolo[3,4-b]pyridin-6-one] | 
14 | 110 | O=C1Nc2[nH]nc(C3CCN(c4ccc(C(F)(F)F)nn4)CC3)c2[C@@H](C(F)(F)F)[C@H]1O (racemic) [Example 7, cis-5-Hydroxy-4-(trifluoromethyl)-3-{1-[6-(trifluoromethyl)pyridazin-3-yl]piperidin-4-yl}-1,4,5,7-tetrahydro-6H-pyrazolo[3,4-b]pyridin-6-one] | 
15 | 100 | O=C1Nc2[nH]nc(C3CCN(c4ccnc(C(F)(F)F)n4)CC3)c2[C@@H](C(F)(F)F)[C@H]1O (single isomer, unassigned) [Example 25, (+)-cis-5-Hydroxy-4-(trifluoromethyl)-3-{1-[2-(trifluoromethyl)pyrimidin-4-yl]piperidin-4-yl}-1,4,5,7-tetrahydro-6H-pyrazolo[3,4-b]pyridin-6-one] | 
16 | 70 | O=C1Nc2[nH]nc(C3CCN(c4cnc(C5CC5)nc4)CC3)c2[C@@H](C(F)(F)F)[C@H]1O (single isomer, unassigned) [Example 40, cis-3-[1-(2-cyclopropylpyrimidin-5-yl)piperidin-4-yl]-5-hydroxy-4-(trifluoromethyl)-1,4,5,7-tetrahydro-6H-pyrazolo[3,4-b]pyridin-6-one] | 
17 | 57 | O=C1Nc2[nH]nc(C3CCN(c4cc(C(=O)N5CCCCC5)c(C(F)(F)F)cn4)CC3)c2[C@@H](C(F)(F)F)[C@H]1O (racemic) [Example 33, cis-5-Hydroxy-3-{1-[4-(piperidin-1-ylcarbonyl)-5-(trifluoromethyl)pyridin-2-yl]piperidin-4-yl}-4-(trifluoromethyl)-1,4,5,7-tetrahydro-6H-pyrazolo[3,4-b]pyridin-6-one] | 
18 | 630 | CC(C)c1nc(N2CCC(c3n[nH]c4c3[C@@H](C(F)(F)F)[C@H](O)C(=O)N4)CC2)cc(C(F)(F)F)n1 (racemic) [Example 8, trans-5-Hydroxy-3-{1-[2-isopropyl-6-(trifluoromethyl)pyrimidin-4-yl]piperidin-4-yl}-4-(trifluoromethyl)-1,4,5,7-tetrahydro-6H-pyrazolo[3,4-b]pyridin-6-one] | 
